According to patent publication US20110162092A1, “COMPOSITION COMPRISED OF AKAP12 AND USES OF AKAP12 MUTANT ZEBRAFISH AS AN ANIMAL MODEL” (SNU RDB FOUNDATION, priority 2008, published 2011):

Tests used:
[1] = tested on: vein endothelial cells of the AKAP12 knockdown zebrafish; test: Movement of vein endothelial cells of AKAP12 knockdown zebrafish treated with RhoA signal inhibitor; assay type: in vivo; conditions: 200 uM, 44 hours after fertilization
ve-cadherin = ve-cadherin expression in HUVEC by western-blotting and immunocytochemistry; assay type: cell-based, human; conditions: treated with both siRNA regarding AKAP12 and ROCKOUT
Method: To be specific, in the western-blotting, first, cells were dissolved in lysis buffer containing 10 mM HEPES (pH 7.9), 400 mM NaCl, 0.1 mM EDTA, 5% glycerol, 1 mM DTT (D1-dithiothreitol) and protease inhibitor cocktail, and the proteins in cells were quantified using BCA. From the whole cell lysate prepared as explained above, the proteins in cells were isolated according to molecular weight sizes using sodium dodecyl sulfate-polyacrylamide gel electrophoresis, and the proteins were moved to the polyvinyldifluoride membrane (Millipore). After that, blocking was performed, and the primary antibody was treated overnight (for 16 hours) at 4° C. On the next day, secondary antibodies regarding the primary antibodies were treated at room temperature for 2 hours, respectively, and detected using ECL PLUS (Amersham). As for the primary antibodies, VE-cadherin (Santa Cruz Biotechnology); F-actin (Sigma) were used.
As for the immunochemistry, first, cells were seeded in a 0.1% gelatin-coated slide, rinsed with cold PBS, and fixed for 10 minutes at room temperature with 4% paraformaldehyde. After that, the cells were rinsed again three times with PBS, treated with 0.5% Triton X-100 for 5 minutes, rinsed with PBS-T and underwent blocking at room temperature for 30 minutes with 0.1% blocking solution (Roche). […]

[2] = tested on: Human Umbilical Vein Endothelial Cells (HUVEC); test: In vitro permeability assay using HUVEC (RITC-labeled dextran, transwell); assay type: cell-based; conditions: AKAP12 siRNA group treated with ROCKOUT, 15 minutes incubation
[3] = tested on: zebrafish AKAP12 beta form; test: Hemorrhage of AKAP12 beta form knockdown zebrafish; assay type: in vivo; conditions: 7.5 ng injected, day 3
Source text: (§1) The present inventors observed the embryos of […] AKAP12 alpha and beta form knockdown zebrafish, and as a result, could observe the bleeding in the 2 to 3 day-old zebrafish.

[4] = tested on: zebrafish AKAP12 beta form mRNA; test: Genetic defect (phenotype) of zebrafish after microinjecting morpholino, beta form; assay type: in vivo
Source text: (§2) The present inventors prepared morpholino for the zebrafish AKAP12 alpha form mRNA and zebrafish AKAP12 beta form mRNA knockdown. The preparation of the morpholino was ordered to Gene Tools LLC. The method for morpholino preparation is written in Summerton, J. et al., Anti sense & Nucleic Acid Drug Development 7: 187-95, 1997. The prepared morpholino was so prepared to block the characteristic variant regions of each of the alpha and beta forms from binding to the site of splicing and thus block splicing and developing into mature mRNA, in which the alpha form morpholino was so designed to bind adjacent to 339th base of the AKAP12 alpha form as the sequence of […] (SEQ. ID. NO. 7) 25-mer, and the beta form morpholino was so designed to bind adjacent to the 227th base of the AKAP12 beta form as the sequence of […] (SEQ. ID. NO. 8) 25-mer (see FIG. 1).
(§3) The present invention knocked down zebrafish AKAP12 mRNA by microinjecting the prepared morpholino of <Example 3> into the zebrafish and observed the phenotype.
(§4) First, the inventors microinjected 7 ng and 10 ng of morpholino for AKAP12 mRNA alpha form, and microinjected 7.5 ng of morpholino for AKAP12 mRNA beta form.
(§5) Further, after injecting 3.7 ng, 7.5 ng and 10 ng of morpholino for zebrafish AKAP12 alpha and beta forms, the present inventors could confirm that the genetic defect appears in the beta form at about 7.5 ng and alpha form at about 3.7 ng (see FIG. 4).

AKAP12 beta form mRNA = test: Zebrafish defect patterns in accordance with morpholino amount, beta form; assay type: in vivo
Source text: (§6) The present inventors knocked down AKAP12 alpha form mRNA and beta form mRNA using morpholino for zebrafish AKAP12 alpha and beta forms, and observed the defect patterns in accordance with the amounts of morpholino, respectively.

[5] = tested on: zebrafish AKAP12 alpha form; test: Hemorrhage of AKAP12 alpha form knockdown zebrafish; assay type: in vivo
Source text: as §1

[6] = tested on: zebrafish AKAP12 alpha form; test: Heart defect of AKAP12 alpha form knockdown tg(cmlc:egfp) zebrafish; assay type: in vivo; conditions: 3.7 ng morpholino, 1.5 days later
Method: The present inventors knocked down zebrafish AKAP12 alpha form using the transgenic zebrafish ‘tg(cmlc:egfp)’ in which green fluoresces characteristically to the light chain of the heat muscles, and observed the heart defects of the zebrafish. That is, the inventors knocked down the zebrafish AKAP12 alpha form by microinjecting 3.7 ng of morpholino for zebrafish AKAP12 alpha form into the transgenic zebrafish (‘tg(cmlc:egfp)’) embryos, and observed the hearts of the zebrafish after 1.5 days later using the LSM 510 META NLO confocal microscope Carl Zeiss, Germany).

AKAP12 alpha form mRNA = test: Zebrafish defect patterns in accordance with morpholino amount, alpha form; assay type: in vivo
Source text: as §6

[7] = tested on: zebrafish AKAP12 alpha form; test: Micro-vasculature defect in brains of AKAP12 alpha form knockdown tg(fli:egfp) zebrafish; assay type: in vivo; conditions: 3 ng morpholino; 10 kDa tetramethylrhodamine-dextran after 3 days
Method: The present inventor knocked down the zebrafish AKAP12 alpha form using the transgenic zebrafish ‘tg(fli:egfp)’ in which green fluoresces selectively in the vein endothelial cells, and observed the defect pattern of the micro-vasculatures in brains. To be specific, the inventors knocked down the zebrafish AKAP12 alpha form by microinjecting 3 ng of morpholino for zebrafish AKAP12 alpha form into the transgenic zebrafish (fli:egfp) embryos, and then after 3 days, microinjected 25 mg/ml of red-fluorescent lysine-fixable tetramethylrhodamine-dextran, 10 kDa through the common cardinal vein of the zebrafish, and then observed through the LSM 510 META NLO confocal microscope (Carl Zeiss, Germany).

[8] = tested on: zebrafish AKAP12 alpha form; test: Vessel defects of AKAP12 knockdown tg(fli:egfp) zebrafish; assay type: in vivo; conditions: 2 ng morpholino; 2000 kDa tetramethylrhodamine-dextran within 48 to 60 hours
Method: The present inventors knocked down the zebrafish AKAP12 alpha and beta forms using the transgenic zebrafish ‘tg(fli:egfp)’ in which green fluoresces selectively in the endothelioyte of the vessels, and observed the defect pattern in the vessels. To be specific, the inventors knocked down the zebrafish AKAP12 alpha and beta forms by microinjecting 2 ng alpha) and 7.5 ng (beta) of morpholino for zebrafish KAAP12 alpha and beta forms, into the transgenic zebrafish ‘fli:egfp’, respectively, and within 48 to 60 hours, microinjected 25 mg/ml of red-fluorescent lysine-fixable tetramethylrhodamine-dextran, 2000 kDa (molecular probes) and observed through the LSM 510 META NLO confocal microscope (Carl Zeiss, Germany).

[9] = tested on: zebrafish AKAP12 alpha form mRNA; test: Genetic defect (phenotype) of zebrafish after microinjecting morpholino, alpha form; assay type: in vivo
Source text: as §2, §3, §4, §5

[10] = morpholino only, control group of rescue test

For `c1ccc2c(-c3ccncc3)c[nH]c2c1` [ROCKOUT], the “movement of vein endothelial cells” value [1] was “the excessive movement of the vein endothelial cells slowed”, the expression of ve-cadherin (ve-cadherin) was “the expression of ve-cadherin increased back” and the RITC permeability [2] was “decreased permeability”.
For “morpholino for zebrafish AKAP12 beta form: 25-mer morpholino TACCTTGCCATCTGCGGTTTCTCCA (SEQ. ID. NO. 8), binds adjacent to 227th base of AKAP12 beta form, blocks splicing (all phosphorodiamidate morpholino (PMO))”, the “rate of zebrafish showing hemorrhage” value [3] was “approximately 27%”, the “amount of morpholino at which the genetic defect appears” value ([4]; 3.7 ng, 7.5 ng and 10 ng injected) was “about 7.5 ng” and the “phenotype: tail portions and mobility” value ([4]; 7.5 ng microinjected) was “crooked or shortened tail portions and abnormal mobility”. The defect patterns [4, 10] was “crooked trunks and bleeding”, the defect pattern (AKAP12 beta form mRNA; 7.5 ng and 8 ng) was “both the bleeding and defects of heat and trunk veins concurrently” and the defect pattern (AKAP12 beta form mRNA; 9 ng or more) was “only the defects in heart and trunk veins”.
With “morpholino for zebrafish AKAP12 alpha form: 25-mer morpholino TCTTACCTGTTAGAGTTATTGTCCC (SEQ. ID. NO. 7), binds adjacent to 339th base of AKAP12 alpha form, blocks splicing (all phosphorodiamidate morpholino (PMO))” the “rate of zebrafish showing hemorrhage” value ([5]; 3 ng injected, day 3) was “approximately 50%”, the “rate of zebrafish with hemorrhage versus amount” value ([5]; 1, 2 and 3 ng in sequence) was “hemorrhage increased as the amount of injected morpholino increased” and the “heart shape (atriums and ventricles)” value [6] was “elongated atriums and ventricles”. For the same molecule, the heartbeats [6] was “non-uniform and weak heartbeats”, the defect pattern (AKAP12 alpha form mRNA; 1 ng and 2 ng) was “bleeding only” and the defect pattern (AKAP12 alpha form mRNA; 4 ng and more) was “decreasing bleeding due to severe defects of hearts and other veins”. For the same molecule, the defect pattern (AKAP12 alpha form mRNA; 3 and 4 ng) was “both the bleeding and defects in heart and trunk veins”, the “defect pattern of micro-vasculatures in brains, dextran distribution” value [7] was “non-uniform micro-vasculature in brains and also the red lysine-fixable tetramethylrhodamine-dextran was distributed around the green micro-vasculatures” and the “defect pattern in the vessels, dextran leakage” value [8] was “non-uniform micro-vasculature in the brains and also the red lysine-fixable tetramethylrhodamine-dextran leaked out of the green vessel”. The “mRNA expression pattern of AKAP12 alpha form by RT-PCR” value ([9]; 7 ng and 10 ng injected, by degree of defect) was “the zebrafish with severer degree of defects had lower degree of mRNA expression”, the “phenotype: tail portions and mobility” value ([9]; 7 ng and 10 ng microinjected) was “crooked or shortened tail portions and abnormal mobility” and the defect patterns [9, 10] was “crooked trunks and bleeding”. For the same molecule, the defect patterns ([9]; only 4 ng morpholino, control group of rat mRNA rescue) was “defect patterns including crooked and shortened tail and deformed hearts”.
